Tests used:
WT and TRPV1−/− hearts = test: SP and CGRP release from hearts subjected to PC (radioimmunoassay); parameters: species or system mouse; conditions: CAPZ 10^−6 M; in WT but not TRPV1−/− hearts
Experimental: Additional WT and TRPV1−/−hearts were treated the same as that of the PC group except that CAPZ (10^−6 M) was added to the solution. In the normal control group, WT and TRPV1−/−hearts were treated the same as that of the PC group except no deprivation of oxygen and glucose. The samples were purified and analyzed by radioimmunoassay. The assay was performed as recommended by the supplier. Commercially available rat CGRP and SP radioimmunoassay kits (Peninsula Laboratories Inc.) were used for determination of SP and CGRP release which was normalized by the heart weight.

WT hearts [1] = test: Lactate dehydrogenase (LDH) release during I/R; parameters: species or system mouse
Experimental: Lactate dehydrogenase (LDH) release: In addition to the measurement of cardiac function, cardiac injury was assessed by measuring LDH release. Perfusion effluent was collected during the first 10 minutes to 20 minutes of I/R and stored at […] until analyzed. Total LDH levels were determined with the use of a CytoTox 96 assay (Promega). The data were expressed as absorbance units released per milliliter per minute per gram of heart wet tissues (Turnbull et al., Am J Physiol Heart Circ Physiol 290: […]-9, 2006; herein incorporated by reference).

[2] = system: Wistar rats fed a NS or HS diet for 10 days; test: MAP responses to i.v. capsaicin with or without CAPZ in urethane-anesthetized rats; type: in vivo, rat
Experimental: (§1) Surgical Preparation Rats were anesthetized with ketamine and xylazine (80 and 4 mg/kg intraperitoneally, respectively) for cannulation or with urethane (1.5 g/kg intraperitoneally) for capsaicin administration. The left jugular vein, carotid and femoral artery were cannulated under anesthesia for injection of drugs or monitoring of mean arterial pressure (MAP) and heart rate (HR).
Each dose of injection was separated by a 30-minute interval. To determine the specificity of capsaicin, CAPZ (3 mg/kg) was administered 10 minutes before capsaicin injection in a separate group.

male Wistar rats = test: Depressor effect of 20-HETE analog DSR given IV, with or without antagonists; type: in vivo, rat; conditions: DSR 1 mg/kg with CAPZ 3 mg/kg, RP67580 4 mg/kg or CGRP 8-37 3 mg/kg
[3] = system: Wistar rats fed a normal-salt (NS) or high-salt (HS) diet for 10 days; test: MAP and HR responses to i.v. bolus NADA with or without antagonists in conscious rats; type: in vivo, rat; conditions: for prolonged depressor effect of NADA (decrease in MAP) after antagonist: NADA 4 mg/kg after CAPZ 3 mg/kg, CGRP8-37 infusion or SR141716A 3 mg/kg
Text: In brief: Wistar rats were fed a normal (NS, 0.4%) or high (HS, 4%) sodium diet for 10 days, then artery and vein were cannulated for measurement of mean arterial pressure (MAP) or for injection of drugs and collection of plasma.
Animal Preparation: Male Wistar rats (7 weeks old, Charles River Laboratory, Wilmington, Mass.) were housed in the animal facility for 1 week before the experiment. Rats were grouped randomly and pair-fed a NS (0.4% of Na^+ by weight) or HS (4% of Na^+ by weight) diet for 10 days. The rat chow was purchased from Harlan Teklad Diets (Madison, Wis.). Drinking water was available ad libitum throughout the experiment. All protocols were in accordance with the National Institutes of Health Guidelines for the Care and Use of Laboratory Animals.
as §1
Three hours after surgery, baseline MAP and its response to the above-mentioned drugs were obtained with the rats fully awake and unrestrained [Wang et al., Am J Physiol 2004; 287:H1868-H[874]. NADA was injected in increasing doses (1, 4, and 10 mg/kg intravenous bolus) in 3 subgroups of rats (each group for each dose). To determine the role of TRPV1 and CB 1 receptor in NADA-induced hypotension, NADA (4 mg/kg) was injected 10 minutes or 20 minutes after intravenous injection of CAPZ (3 mg/kg) or SR141716A (3 mg/kg), respectively.
To examine the effect of CGRP8-37 on NADA-induced hypotension, CGRP8-37 was intravenously administered at the rate of 1 mg/kg/min for 2 minutes followed by injection at the rate of 0.5 mg/kg/min for 15 minutes. NADA (4 mg/kg) was injected 1 minute after CGRPs-37 administration. The effectiveness of the dose and time frame for CGRP8-37 injection was verified by blockade of the hypotensive response to capsaicin (30 μg/kg) (n=5).

WT hearts [4] = test: Preconditioning (PC) protection against I/R in Langendorff hearts with receptor antagonists, wild type; parameters: species or system mouse
Experimental: Male TRPV1 gene knockout (TRPV1-/-) strain B6.129S[…][…]^tm1Jul and matching control wild type (WT) strain C57BL/6J mice were used (Jackson Laboratory, Bar Harbor, Me.). Mice were heparinized (500 U/kg i.p.) and anesthetized with pentobarbital sodium (50 mg/kg i.p.). […] The distal end of the catheter was connected to a […] Performance Analyzer via a pressure transducer. Coronary flow (CF) was continuously measured using an ultrasonic flow probe placed in the aortic perfusion line. Hearts were paced at 400 bpm except during ischemic PC and sustained global ischemia to avoid inducing excessive ventricular tachyarrhythmia during reperfusion, and pacing was reinitiated 2 minutes after reperfusion. Left ventricular developed pressure (LVDP, peak systolic minuses LVEDP) and LV peak positive […]) during isovolumic contraction were used as indices of LV systolic function; LVEDP and the peak negative […] used as indices of LV diastolic function. […] Non-preconditioned hearts were time-matched perfused with the same duration as that of preconditioned hearts. Group 1: Controls. As normal controls (nonischemic), WT and TRPV1-/- hearts were perfused for 130 minutes. For I/R controls, WT and TRPV1-/- hearts were first perfused with Krebs-Henseleit buffer for 55 min (time-matched perfusion of the equilibration period plus the PC period), and subsequently subjected to 30 minutes of no-flow normothermic global ischemia followed by 40-minutes of reperfusion. Group 2: PC. […] The hearts were subjected to 30 minutes of no-flow normothermic global ischemia followed by 40-minutes of reperfusion as that of I/R control groups. Group 3: PC plus capsazepine (CAPZ). […] Two additional concentrations of CAPZ, 10^-6M and 10^-8 M, were used in WT hearts. An additional drug control was added. After a 20-minute equilibration period, WT hearts were perfused with CAPZ (10^-7 M) for 10 minutes without PC, followed by perfusion with Krebs-Henseleit buffer for 25 minutes (time-matched perfusion of the PC period) and then subjected to I/R. Group 4: […] Two additional concentrations of CGRP8-37, 10^-5 M and 10^-7 M, were used in WT hearts. An additional drug control of CGRP8-37 was added as that of the CAPZ control group. Group 5: PC plus RP67580. To determine the role of endogenous SP during PC, hearts from WT and TRPV1-/-mice were perfused as that of CAPZ with RP67580 (10^-7 M), a selective neurokinin-1 (NK1) receptor antagonist. Two additional concentrations of RP67580, 10^-6 M and 10^-8 M, were used in WT hearts. An additional drug control of RP67580 was added as that of the CAPZ control group.

Oc1cc2c(cc1O)CN(C(=S)NCCc1ccc(Cl)cc1)CCC2 [CAPZ, N-[2-(4-Chlorophenyl)ethyl]-1,3,4,5-tetrahydro-7,8-dihydroxy-2H-2-benzazepine-2-carbothioamide]
CGRP release from hearts subjected to PC (WT and TRPV1−/− hearts): attenuated
SP release from hearts subjected to PC (WT and TRPV1−/− hearts): attenuated
effect on PC protection assessed by LDH levels after I/R in WT hearts (WT hearts [1]): abolished
capsaicin-induced decrease in MAP after CAPZ ([2]; CAPZ 3 mg/kg before capsaicin 10 μg/kg, HS): 4±1 mmHg
capsaicin-induced decrease in MAP after CAPZ ([2]; CAPZ 3 mg/kg before capsaicin 10 μg/kg, NS): 4±1 mmHg
capsaicin-induced decrease in MAP after CAPZ ([2]; CAPZ 3 mg/kg before capsaicin 30 μg/kg, HS): 6±2 mmHg
capsaicin-induced decrease in MAP after CAPZ ([2]; CAPZ 3 mg/kg before capsaicin 30 μg/kg, NS): 5±1 mmHg
DSR induced-depressor effect after antagonist (male Wistar rats): 8.5±2.5 mmHg
effect of antagonist on NADA-induced depressor effect ([3]; NADA 4 mg/kg): abolished
prolonged depressor effect of NADA (decrease in MAP) after antagonist ([3]; HS diet): 7±2 mmHg
prolonged depressor effect of NADA (decrease in MAP) after antagonist ([3]; NS diet): 6±2 mmHg
effect on cardiac function in WT hearts without I/R (WT hearts [4]): no effect on cardiac function
effect on PC-induced cardiac protection (LVEDP, LVDP, CF, +dP/dt, −dP/dt) in WT hearts (WT hearts [4]; CAPZ 10^−7 M, CGRP8-37 10^−6 M, RP67580 10^−7 M): abolished PC induced protection
